Literature values as cited in patent US8987322B2, “Pharmaceutical formulations for carrier-mediated transport statins and uses thereof” (Circ Pharma Research and Development Limited, priority 2003, dated 2015).

Experiments:
[1] = like that found in the stomach
[2] = not given; remark: listed apart in the source
[3] = not given; remark: listed apart in the source
rat hepatocytes = conditions: White (2002), read-out: IC50, inhibition of sterol synthesis
HMG-CoA reductase = biological target: T1, HMG-CoA reductase (Homo sapiens, UniProt P04035)
T1 sequence (P04035 1-888): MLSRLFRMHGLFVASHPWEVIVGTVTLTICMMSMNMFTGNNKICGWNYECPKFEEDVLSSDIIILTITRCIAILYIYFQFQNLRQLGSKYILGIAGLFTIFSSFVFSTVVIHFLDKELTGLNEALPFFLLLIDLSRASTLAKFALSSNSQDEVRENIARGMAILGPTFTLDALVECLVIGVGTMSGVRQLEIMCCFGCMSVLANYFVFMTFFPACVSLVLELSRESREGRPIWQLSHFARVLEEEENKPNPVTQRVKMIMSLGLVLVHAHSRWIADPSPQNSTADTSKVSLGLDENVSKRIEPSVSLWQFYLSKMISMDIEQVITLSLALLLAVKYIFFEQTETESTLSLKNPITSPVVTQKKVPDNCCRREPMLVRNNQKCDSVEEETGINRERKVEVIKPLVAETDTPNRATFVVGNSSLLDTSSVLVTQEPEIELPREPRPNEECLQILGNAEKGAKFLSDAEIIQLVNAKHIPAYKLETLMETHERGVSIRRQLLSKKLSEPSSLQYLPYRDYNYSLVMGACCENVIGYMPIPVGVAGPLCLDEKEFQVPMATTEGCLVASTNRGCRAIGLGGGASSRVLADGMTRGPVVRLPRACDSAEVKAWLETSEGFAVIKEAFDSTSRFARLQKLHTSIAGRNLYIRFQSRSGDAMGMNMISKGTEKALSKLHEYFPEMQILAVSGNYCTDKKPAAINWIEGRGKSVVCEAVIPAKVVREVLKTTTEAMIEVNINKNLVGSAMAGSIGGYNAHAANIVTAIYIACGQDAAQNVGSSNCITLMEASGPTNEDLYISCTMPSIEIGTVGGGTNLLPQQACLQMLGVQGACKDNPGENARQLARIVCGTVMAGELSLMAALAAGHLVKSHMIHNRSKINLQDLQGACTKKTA

[4] = test system: LDL-C, HDL-C and triglyceride levels; conditions: Malinowski (1998)

| SMILES | water solubility class as defined in the U.S. Pharmacopeia (2002) | stability in an acidic environment [1] | adverse effect at high doses ([2]; 80 mg and higher, phase III clinical trials) | tolerability in humans ([2]; doses ranging from 1 to 40 mg) | clearance through biliary excretion ([3]; Cheng-Lai (2003)) [%] | excreted in the urine ([3]; Cheng-Lai (2003)) [%] | hepatic extraction (share of the absorbed dose extracted by the liver) ([3]; Igel et al. (2002)) | dose dependence of Cmax and AUC ([3]; doses ranging from 5 to 80 mg) | elimination half-life (t1/2) ([3]; in vivo) [h] | effect of food on absorption ([3]; presence of food) | IC50 (rat hepatocytes) [nM] | share of the inhibitory activity due to the parent compound (HMG-CoA reductase; White (2002)) [%] | reduction of LDL-C levels [4] | fraction of drug absorbed from the intestine taken up by the liver ([3]; first-pass) [%] | fraction of orally administered drug absorbed from the intestine ([3]; oral) | systemic availability of active inhibitors (parent drug and its metabolites) ([3]; oral) [%] | share of atorvastatin's inhibitory activity accounted for by its o-hydroxylated and p-hydroxylated metabolites (HMG-CoA reductase) | duration of HMG-CoA reductase inhibition (HMG-CoA reductase; due to the inhibitory activity of metabolites) [h] |
| --- | --- | --- | --- | --- | --- | --- | --- | --- | --- | --- | --- | --- | --- | --- | --- | --- | --- | --- |
| CC(C)c1nc(N(C)S(C)(=O)=O)nc(-c2ccc(F)cc2)c1/C=C/[C@@H](O)C[C@@H](O)CC(=O)O (single isomer, unassigned) [rosuvastatin] | sparingly soluble (“sparingly soluble” refers to an aqueous solubility that ranges from about 1/30 to about 1/100 (mg/ml)) | stable in acidic environments | associated with myopathy | well tolerated | 90 | 10 | up to 90% | relatively linear relationship | 20 | overall extent of absorption remains constant | 0.16 | 90 |  |  |  |  |  |  |
| CC(C)c1c(C(=O)Nc2ccccc2)c(-c2ccccc2)c(-c2ccc(F)cc2)n1CC[C@@H](O)C[C@@H](O)CC(=O)O [atorvastatin] |  |  |  |  |  |  |  |  |  |  |  |  | 40-60% | ≥ 70 | about 30% | 30 | approximately 70% | 20 to 30 |
| CC[C@H](C)C(=O)O[C@H]1C[C@H](O)C=C2C=C[C@H](C)[C@H](CC[C@@H](O)C[C@@H](O)CC(=O)O)[C@H]21 [pravastatin] |  | unstable in an acidic environment |  |  |  |  |  |  |  |  |  |  |  |  |  |  |  |  |
